{"source": "patent US9320759B2", "about": "“Methods and compositions for treating, reducing or preventing deterioration of the visual system of animals” (Nestec S.A, priority 2011, dated 2016)", "key": {"[1]": {"system": "brain lesion (infarcted area) after middle cerebral artery occlusion", "test": "TTC staining, brain lesion volume after transient middle cerebral artery occlusion", "assay_type": "in vivo, rat", "settings": "OVX female rats, 4 weeks diet (E2 1 week), 1 hour MCA occlusion, 24 hours reperfusion", "procedure": "Young adult (2 to 3 months old) female Charles River rats were ovariectomized (OVX) and fed one of 5 compositions for 4 weeks or treated with estradiol (E2) as a positive control for one week. The animal groups and respective compositions were: At the end of the 4 weeks of feeding (or 1 week of E2 treatment), the animals were subjected to a transient (1 hour) middle cerebral artery occlusion followed by reperfusion for 24 hours to mimic one of the main causes of neuron loss. […] Photographs were taken with a digital camera. The digital images of each brain section were used to calculate lesion volume for the infracted area of the brain."}, "[2]": {"system": "TUNEL-positive cells in the ischemic boundary cortex", "test": "TUNEL staining and cell death quantification after transient middle cerebral artery occlusion", "assay_type": "in vivo, rat", "settings": "OVX female rats, 4 weeks diet (E2 1 week), 1 hour MCA occlusion, 24 hours reperfusion", "method": "Young adult (2 to 3 months old) female Charles River rats were ovariectomized (OVX) and fed one of 5 compositions for 4 weeks or treated with estradiol (E2) as a positive control for one week. The animal groups and respective compositions were: At the end of the 4 weeks of feeding (or 1 week of E2 treatment), the animals were subjected to a transient (1 hour) middle cerebral artery occlusion followed by reperfusion for 24 hours to mimic one of the main causes of neuron loss. Then, the animals were euthanized for determination of brain lesion volume and subsequent terminal deoxynucleotidyl transferase dUTP nick end labeling (TUNEL) staining to evaluate apoptosis in and around brain lesions. TUNEL staining was conducted on the same tissue used for assessment of lesion volume in Example 2. Brain slices were post-fixed in 4% formalin for later sectioning for subsequent staining for TUNEL positive neurons. DNA fragmentation was detected by a TUNEL method using a Dead END fluorescent kit (Promega, Madison, Wis.) according to the manufacturer's instruction. […] Within these boundaries, optical dissectors were systematically randomly sampled and the number of positive cells, together with DAPI labeled nuclear counter-stain in each optical section is counted. […] The data were expressed as the percentage of DAPI nuclear counter-stained cells."}}, "data": [{"smiles": "C[C@]12CC[C@@H]3c4ccc(O)cc4CC[C@H]3[C@@H]1CC[C@@H]2O", "note": "[17β-Estradiol]", "values": [{"measurement": "Lesion Volume Value", "setting": "[1]", "value": 147.41}, {"measurement": "TUNEL Staining Value (TUNEL-positive cells normalized to the total number of cells by DAPI stain)", "setting": "[2]", "value": "37.69 percentage of DAPI nuclear counter-stained cells"}]}]}
